# Like-named read-outs stand apart in the source and are kept apart here.
# Key:
# [1] = CART (classification and regression tree) analysis of exposure and 28-day mortality; assay type: in vivo, human; conditions: HABP/VABP subjects with renal impairment
# Method: Values were determined for each simulated clinical trial (n=100), and presented as a mean and standard deviation.
# The logistic regression analysis in HABP/VABP subjects with impaired renal function (CrCl≦50 mL/min) is consistent with the results of the CART analysis in HABP/VABP subjects with renal impairment.
# [2] = Individually predicted steady state exposure in Phase 3 subjects with PK samples; assay type: in vivo; conditions: human, plasma, intravenous
# Method: This analysis was designed to describe the relationship between exposure and response in patients treated with telavancin.
# The predicted telavancin PK profiles for each subject were generated using the individually estimated PK parameters determined during the population PK analysis based on the administered dose as recorded in the dataset. The individually estimated PK parameters for each subject were determined based upon the specific intra- and inter-individual errors determined using nonlinear mixed effect analysis.
# [3] = Observed outcomes in Phase 3 HABP/VABP and cSSSI studies 0015, 0017, 0018, 0019; assay type: in vivo, human
# Description: The data for the simulations was based on 1771 subjects from Studies 0015, 0017, 0018 and 0019.
# The data for the analysis was based upon 579 subjects from Studies 0015, 0017, 0018 and 0019. […]
# [4] = Population PK model for telavancin from Phase 1, 2 and 3 plasma concentrations; assay type: in vivo; conditions: both sexes, human, intravenous, final combined population PK model, read-out: CL, population estimate ± SE (converted)
# [5] = Logistic regression of outcomes as a function of steady state exposure (AUC0-24h) in Phase 3 subjects; assay type: in vivo, human
# Method: Logistic regression analysis was used to parameterize the relationship between exposure (AUC0-24h) and the probability of 28-day all-cause mortality, AKI (defined as a 50% increase or greater than 0.5 mg/dL increase in serum creatinine) and clinical response at test of cure (TOC) for all Phase 3 subjects. The analysis was repeated for the individual HABP/VABP and cSSSI subpopulations.
# Logistic regression analyses were conducted on the Phase 3 dataset using individually predicted exposure (AUC0-24h) and the outcomes of interest (28-day all-cause mortality, AKI, and clinical response at TOC). The analysis was performed using the generalized linear model function in R specifying a binomial variance and the logit link function.
# The output produced for each logistic regression analysis includes indices of fit (i.e., null and deviance residuals, Akaike's information criterion and likelihood ratio test statistics to provide an assessment of model improvement as additional parameters are included in the model).
# [6] = Phase 3 HABP/VABP subjects with PK samples, n=196
# [7] = Phase 3 Total with PK samples, n=579
# [8] = Phase 3 all-treated HABP/VABP subjects, n=750
# [9] = Phase 3 all-treated Total, n=1771
# [10] = Phase 3 all-treated cSSSI subjects, n=1021
# [11] = Phase 3 cSSSI subjects with PK samples, n=383
smiles,measurement,setting,value
"CCCCCCCCCCNCCNC1(C)CC(OC2C(Oc3c4cc5cc3Oc3ccc(cc3Cl)[C@@H](O)[C@@H](NC(=O)[C@@H](CC(C)C)NC)C(=O)N[C@@H](CC(N)=O)C(=O)N[C@H]5C(=O)N[C@H]3C(=O)N[C@H](C(=O)N[C@H](C(=O)O)c5cc(O)c(CNCP(=O)(O)O)c(O)c5-c5cc3ccc5O)[C@H](O)c3ccc(c(Cl)c3)O4)OC(CO)C(O)C2O)OC(C)C1O (stereo partly shown) [telavancin, N^3″-[2-(decylamino)ethyl]-29-[[(phosphonomethyl)amino]methyl]vancomycin]",predicted exposure with greater likelihood of 28-day mortality (CART cutpoint),[1],greater than 767 μg·hr/mL
same,AUC0-24 at steady state,"[2]; HABP/VABP subjects, n=196, read-out: AUC0-24, mean ± SD (range)",670 ± 231 µg·h/mL
same,AUC0-24 at steady state,"[2]; Total, n=579, read-out: AUC0-24, mean ± SD (range)",671 ± 214 µg·h/mL
same,AUC0-24 at steady state,"[2]; cSSSI subjects, n=383, read-out: AUC0-24, mean ± SD (range)",671 ± 206 µg·h/mL
same,"AKI, Y (number of subjects)",[3]; [6],"Y = 39, N = 157"
same,CURE (number of subjects),[3]; [6],"CURE = 127,"
same,"MORTALITY, Y (number of subjects)",[3]; [6],"Y = 45, N = 151"
same,"AKI, Y (number of subjects)",[3]; [7],"Y = 78, N = 500,"
same,CURE (number of subjects),[3]; [7],"CURE = 449,"
same,"MORTALITY, Y (number of subjects)",[3]; [7],"Y = 46, N = 533"
same,"AKI, Y (number of subjects)",[3]; [8],"Y = 171, N = 542,"
same,CURE (number of subjects),[3]; [8],"CURE = 442,"
same,"MORTALITY, Y (number of subjects)",[3]; [8],"Y = 178, N = 572,"
same,"AKI, Y (number of subjects)",[3]; [9],"Y = 291, N = 1413,"
same,CURE (number of subjects),[3]; [9],"CURE = 1230,"
same,"MORTALITY, Y (number of subjects)",[3]; [9],"Y = 187, N = 1584"
same,"AKI, Y (number of subjects)",[3]; [10],"Y = 120, N = 871,"
same,CURE (number of subjects),[3]; [10],"CURE = 788,"
same,"MORTALITY, Y (number of subjects)",[3]; [10],"Y = 9, N = 1012,"
same,"AKI, Y (number of subjects)",[3]; [11],"Y = 39, N = 343,"
same,CURE (number of subjects),[3]; [11],"CURE = 322,"
same,clearance,[4],19.2 mL/min
same,"Steady State AUC0-24 h coefficient, Estimate; clinical response at TOC",[5]; all HABP/VABP subjects,4.50e−4
same,"Steady State AUC0-24 h coefficient, Pr(>|z|); clinical response at TOC",[5]; all HABP/VABP subjects,0.495
same,"Steady State AUC0-24 h coefficient, Estimate; clinical response at TOC",[5]; all Phase 3 subjects,4.29e−3
same,"Steady State AUC0-24 h coefficient, Pr(>|z|); clinical response at TOC",[5]; all Phase 3 subjects,0.368
same,"Steady State AUC0-24 h coefficient, Estimate; clinical response at TOC",[5]; all cSSSI subjects,4.11e−4
same,"Steady State AUC0-24 h coefficient, Pr(>|z|); clinical response at TOC",[5]; all cSSSI subjects,0.557

# Reference: patent publication US20160243190A1, “DOSES AND METHODS FOR ADM[…]” (THERAVANCE BIOPHARMA A[…], LLC, priority 2015, published 2016)
